Data set [1] concerns the target LRRK2. Also noted: method as in PMID 31365783, PMID 36256881, PMID 33582389, PMID 33248850. The conditions noted are these: saturation assays; cited from earlier work.
Data set [2] has as its target T1, LRRK2 (Rattus norvegicus, UniProt F1LNJ1).
T1 construct: from tissue; host or cells: rat brain (Sprague-Dawley rats)
The experiment in a line: In vitro autoradiography in rat brain sections. The conditions noted are these: blocking with 3 (10 μM). The format is binding. The method, then: The general procedure for autoradiography studies was described previously with minor revision in this work.[36],[40] Brain sections from rats were preincubated with Tris-HCl buffer (50 mM), MgCl2 (1.2 mM) and CaCl2 (2 mM) solution for 20 min at ambient temperature, followed by incubation with [^11C]3 and [^18F]4 (0.48 nM). […] After incubation, brain sections were rinsed with ice-cold buffer 3 times for 2 min and dipped in cold distilled water for 10 s. The brain sections were dried with cold air and then placed on imaging plates (BAS-MS2025, GE Healthcare, NJ) for optimized contact periods. Autoradiograms were obtained and regions of interest (ROIs) were carefully drawn with the reference of naked-eye observation. Radioactivity was measured using an Amersham Typhoon 5 analyzer system and expressed as photostimulated luminescence values per unit area (PSL/mm^2) or normalized to % of radioactivity vs control.

The test system of another data set is MDR1. The conditions noted are these: cited from earlier work.
The conditions of data set [3]: cited from earlier work; for RRCK Papp AB: molecular formula strings file.
A further data set deals with LRRK2 WT. The note with it: cited from earlier work.
In another data set the test system is THLE cells. The conditions noted are these: THLE cell viability; cited from earlier work.
For data set [4] the following is noted: human liver microsomal clearance; cited from earlier work.
Details of data set [5]: method as in earlier work. The conditions noted are these: molecular formula strings file; cited from earlier work.
The test system of data set [6] is LRRK2. The note with it: read-out: WCA IC50, cited from earlier work.
For another data set, the system named is LRRK2 G2019S. The note with it: cited from earlier work.

The values below come from publication PMC10895652, “Preclinical Evaluation of Novel Positron Emission Tomography (PET) Probes for Imaging Leucine-Rich Repeat Kinase 2 (LRRK2)” (Journal of Medicinal Chemistry, 2024).

The structures appear in SMILES notation. Where two headings read alike, the source gives them in different places.

As a reminder, the Kd is a measure of binding affinity in units of concentration. In general, IC50 refers to the concentration that gives 50% inhibition. Broadly, the LogD is the decadic logarithm of the distribution of all forms, ionised or not, between an organic phase and buffer at a given pH. A word on the pKa: it is the pH at which an ionisable group is half protonated.

T1 sequence (F1LNJ1 1-2526): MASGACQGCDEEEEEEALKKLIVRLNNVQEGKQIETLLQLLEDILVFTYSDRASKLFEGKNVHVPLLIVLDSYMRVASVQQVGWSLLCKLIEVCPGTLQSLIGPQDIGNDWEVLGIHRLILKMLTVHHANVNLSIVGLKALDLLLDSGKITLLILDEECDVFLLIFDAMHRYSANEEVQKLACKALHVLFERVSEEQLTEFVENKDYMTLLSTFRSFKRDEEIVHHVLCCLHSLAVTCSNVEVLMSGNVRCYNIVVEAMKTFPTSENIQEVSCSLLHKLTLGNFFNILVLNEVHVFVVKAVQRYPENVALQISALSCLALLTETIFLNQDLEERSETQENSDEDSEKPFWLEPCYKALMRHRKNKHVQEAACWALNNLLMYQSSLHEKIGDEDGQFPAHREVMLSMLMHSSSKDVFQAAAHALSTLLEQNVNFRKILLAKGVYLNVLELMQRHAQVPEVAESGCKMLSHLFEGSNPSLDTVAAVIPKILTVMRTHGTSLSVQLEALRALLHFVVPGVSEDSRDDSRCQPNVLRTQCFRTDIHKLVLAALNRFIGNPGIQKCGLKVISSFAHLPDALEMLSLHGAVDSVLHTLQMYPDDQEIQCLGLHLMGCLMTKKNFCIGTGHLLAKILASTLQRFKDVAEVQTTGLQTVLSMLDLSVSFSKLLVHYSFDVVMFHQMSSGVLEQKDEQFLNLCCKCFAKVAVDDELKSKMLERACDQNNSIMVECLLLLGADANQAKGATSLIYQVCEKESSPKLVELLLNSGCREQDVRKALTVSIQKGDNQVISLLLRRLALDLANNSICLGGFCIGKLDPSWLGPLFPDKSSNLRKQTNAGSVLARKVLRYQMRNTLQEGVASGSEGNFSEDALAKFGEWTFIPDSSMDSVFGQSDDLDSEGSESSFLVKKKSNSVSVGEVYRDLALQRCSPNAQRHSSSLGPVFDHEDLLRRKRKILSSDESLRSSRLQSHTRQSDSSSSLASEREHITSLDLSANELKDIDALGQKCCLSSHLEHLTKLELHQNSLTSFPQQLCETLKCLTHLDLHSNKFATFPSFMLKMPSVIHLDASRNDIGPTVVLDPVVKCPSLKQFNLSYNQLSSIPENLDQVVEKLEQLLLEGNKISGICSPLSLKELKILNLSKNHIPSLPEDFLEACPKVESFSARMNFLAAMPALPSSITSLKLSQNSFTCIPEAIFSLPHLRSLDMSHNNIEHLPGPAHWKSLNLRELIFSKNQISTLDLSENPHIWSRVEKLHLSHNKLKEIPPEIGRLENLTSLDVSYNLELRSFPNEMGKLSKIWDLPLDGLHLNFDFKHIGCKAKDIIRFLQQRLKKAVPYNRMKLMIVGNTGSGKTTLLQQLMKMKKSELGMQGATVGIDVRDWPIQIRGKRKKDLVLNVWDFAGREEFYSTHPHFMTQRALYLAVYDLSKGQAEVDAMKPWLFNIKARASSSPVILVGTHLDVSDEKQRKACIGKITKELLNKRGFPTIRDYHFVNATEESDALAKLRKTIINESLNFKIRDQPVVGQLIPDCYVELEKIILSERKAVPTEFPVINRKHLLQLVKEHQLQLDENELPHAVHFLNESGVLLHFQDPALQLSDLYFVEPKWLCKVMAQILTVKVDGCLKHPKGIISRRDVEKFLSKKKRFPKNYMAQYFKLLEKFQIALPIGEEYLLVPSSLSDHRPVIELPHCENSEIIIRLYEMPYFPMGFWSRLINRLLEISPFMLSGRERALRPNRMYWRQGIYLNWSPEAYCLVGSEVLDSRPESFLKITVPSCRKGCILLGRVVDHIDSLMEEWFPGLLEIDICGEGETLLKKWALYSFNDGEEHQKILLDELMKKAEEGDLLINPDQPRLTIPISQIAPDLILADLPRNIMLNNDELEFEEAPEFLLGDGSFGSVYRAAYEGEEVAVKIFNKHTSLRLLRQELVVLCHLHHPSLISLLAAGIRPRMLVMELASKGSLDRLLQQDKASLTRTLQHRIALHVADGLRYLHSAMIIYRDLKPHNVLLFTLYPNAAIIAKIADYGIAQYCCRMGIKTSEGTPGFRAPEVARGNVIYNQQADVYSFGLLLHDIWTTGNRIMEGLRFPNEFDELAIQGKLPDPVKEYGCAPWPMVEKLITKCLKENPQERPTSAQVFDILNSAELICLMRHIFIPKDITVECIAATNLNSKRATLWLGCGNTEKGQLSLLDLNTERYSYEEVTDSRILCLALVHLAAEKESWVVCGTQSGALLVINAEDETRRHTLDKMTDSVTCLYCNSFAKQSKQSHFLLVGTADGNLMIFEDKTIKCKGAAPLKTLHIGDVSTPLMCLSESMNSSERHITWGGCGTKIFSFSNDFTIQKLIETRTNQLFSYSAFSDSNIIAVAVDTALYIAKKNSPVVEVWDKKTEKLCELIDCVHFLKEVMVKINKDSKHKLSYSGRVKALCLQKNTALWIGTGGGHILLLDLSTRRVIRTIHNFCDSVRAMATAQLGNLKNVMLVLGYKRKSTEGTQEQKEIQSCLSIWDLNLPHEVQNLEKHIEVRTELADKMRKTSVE

Regarding `CN(C)c1ncnc2[nH]cc(-c3ccc([18F])nc3)c12` [compound 1], the Kd on LRRK2 [1] is 0.0067 µM.

As to `N#[11C]c1cccc(-c2c[nH]c3ncnc(N4CCOCC4)c23)c1` [[^11C]3], the “reduction of radioactive uptake under self-blocking” value amounted to 83% on LRRK2 [2] (cerebellum); 87% on LRRK2 [2] (cerebral cortex); 87% at LRRK2 [2] (hippocampus); 64% on LRRK2 [2] (pons); 85% at LRRK2 [2] (striatum); 83% at LRRK2 [2] (thalamus).

Turning to `CNc1nc(Nc2ccc(C(=O)N3CCOCC3)cc2O[11CH3])ncc1C(F)(F)F` [GNE-1023, reference compound], in the data set with MDR1 (MDR1 efflux ratio), the “MDR1 BA/AB” value is 1.2. Besides, the “RRCK PappAB” value in data set [3] (passive permeability) is 18.2 1 × 10^–6 cm/s. For the same molecule, the IC50 with LRRK2 WT (biochemical LRRK2 assay, n ≥ 2) is 0.002 µM.

Consider `N#Cc1cccc(-c2c[nH]c3ncnc(N4CCOCC4)c23)c1F` [compound 4], for which the “MDR1 BA/AB” value in the data set with MDR1 (MDR1 efflux ratio) was 1.10. Also, the IC50 is 162 µM in the data set on THLE cells; 0.003 µM with LRRK2 WT (Table S1); 0.00358 µM in the data set with LRRK2 WT (biochemical LRRK2 assay, n ≥ 2); 0.02 µM with LRRK2 [6] (whole cellular LRRK2 assay, n ≥ 2); 0.009 µM with LRRK2 G2019S (Table S1). In data set [4], the “HLM CL” value was 31.4 mL/min/kg. Moreover, the log distribution coefficient (LogD) in [5] is listed as 2.072. Besides, the pKa in data set [5] is 5.61. Further, the RRCK PappAB in data set [3] (Table S1, unit assumed) is 29.2 10^-6 cm/s; in data set [3] (passive permeability), 29.18 1 × 10^–6 cm/s. In addition, in data set [3], the “RRCK Papp AB” value is reported as 29.18.

Take `CC(C)(C)Cn1ccc2c(N3CCOCC3)nc(-c3ccc(NC(=O)Nc4ccc([18F])nc4)cc3)nc21` [FMN3PU]: the Kd at LRRK2 [1] was 0.0236 µM.

With `[18F]c1ccc(-c2c[nH]c3ncnc(N4CCOCC4)c23)cn1` [compound 2], the Kd at LRRK2 [1] was 0.0143 µM.

Take `CC(C)(C)Cn1ccc2c(N3CCOCC3)nc(-c3ccc(NC(=O)c4ccc([18F])nc4)cc3)nc21` [FMN3PA]: the Kd at LRRK2 [1] is 0.02 µM.

On to `N#Cc1cccc(-c2c[nH]c3ncnc(N4CCOCC4)c23)c1` [compound 3, 3-(4-morpholino-7H-pyrrolo[2,3-d]pyrimidin-5-yl)benzonitrile], for which the “MDR1 BA/AB” value is given as 1.08 in the data set with MDR1 (MDR1 efflux ratio) and 1.0 with MDR1 (Table S1). Further, the IC50 was over 223 µM in the data set with THLE cells; 0.003 µM in the data set with LRRK2 WT (biochemical LRRK2 assay, n ≥ 2); 0.025 µM in the data set on LRRK2 [6] (Table S1); 0.014 µM in the data set with LRRK2 G2019S (biochemical LRRK2 assay, n ≥ 2). The “HLM CL” value in data set [4] is reported as 36 mL/min/kg. Moreover, the RRCK PappAB in data set [3] (Table S1, unit assumed) is 27 10^-6 cm/s; in [3] (passive permeability) it was 26.68 1 × 10^–6 cm/s. Besides, the “RRCK Papp AB” value in data set [3] is recorded as 26.68.
